Results: the NIST ThermoML archive (doi:10.1016/j.tca.2017.06.023)

How the values were obtained:
[1] = xn = mol fraction of the nth substance listed; conditions: 100 kPa, Liquid; for viscosity: Capillary tube (Ostwald / Ubbelohde) method; for speed of sound: Frequency=3 MHz, Sing-around technique in a fixed-path interferometer; for mass density: Vibrating tube method
[2] = refractive index (Na D-line) (dimensionless); xn = mol fraction of the nth substance listed; conditions: 100 kPa, Liquid, Standard Abbe refractometry

CC(=O)N(C)C [N,N-dimethylethanamide] + CC(C)O
Conditions	mass density, [1] [kg/m3]	refractive index, [2]	speed of sound, [1] [m/s]	viscosity, [1] [mPa·s]
283.15 K, x1 = 0.0551	803.7	1.38572	1214.1	2.752
283.15 K, x1 = 0.1091	813.5	1.38973	1234.9	2.354
283.15 K, x1 = 0.2113	831.42	1.39698	1271.8	1.896
283.15 K, x1 = 0.3066	847.5	1.40342	1303.6	1.643
283.15 K, x1 = 0.4084	864.09	1.40997	1336.4	1.476
283.15 K, x1 = 0.5049	879.33	1.4159	1366.7	1.392
283.15 K, x1 = 0.6056	894.73	1.42182	1398.1	1.305
283.15 K, x1 = 0.7028	909.13	1.42729	1427.9	1.272
283.15 K, x1 = 0.8024	923.39	1.43267	1458.5	1.246
283.15 K, x1 = 0.8956	936.27	1.43751	1486.3	1.213
283.15 K, x1 = 0.9464	943.08	1.44007	1501.5	1.205
283.15 K, x1 = 1	950.13	1.44273	1516.8	1.168
298.15 K, x1 = 0.0551	791.24	1.37924	1160.6	1.793
298.15 K, x1 = 0.1091	800.93	1.38322	1180.6	1.598
298.15 K, x1 = 0.2113	818.64	1.39042	1215.9	1.355
298.15 K, x1 = 0.3066	834.52	1.3968	1247.4	1.214
298.15 K, x1 = 0.4084	850.94	1.40331	1279.7	1.117
298.15 K, x1 = 0.5049	866.02	1.40919	1309.3	1.057
298.15 K, x1 = 0.6056	881.3	1.41506	1338.8	1.017
298.15 K, x1 = 0.7028	895.59	1.42049	1369.3	0.993
298.15 K, x1 = 0.8024	909.75	1.42581	1399.3	0.977
298.15 K, x1 = 0.8956	922.53	1.43061	1426.5	0.956
298.15 K, x1 = 0.9464	929.3	1.43317	1441.3	0.949
298.15 K, x1 = 1	936.29	1.43579	1453.7	0.93
313.15 K, x1 = 0.0551	778.1	1.37249	1107.6	1.223
313.15 K, x1 = 0.1091	787.72	1.37646	1127.3	1.129
313.15 K, x1 = 0.2113	805.29	1.38365	1162.2	1.008
313.15 K, x1 = 0.3066	821.08	1.39004	1193.5	0.933
313.15 K, x1 = 0.4084	837.39	1.39653	1225.2	0.879
313.15 K, x1 = 0.5049	852.41	1.40242	1254.2	0.849
313.15 K, x1 = 0.6056	867.62	1.40827	1282.9	0.828
313.15 K, x1 = 0.7028	881.85	1.4137	1313.2	0.809
313.15 K, x1 = 0.8024	895.96	1.41903	1342.1	0.795
313.15 K, x1 = 0.8956	908.71	1.42383	1368.5	0.779
313.15 K, x1 = 0.9464	915.46	1.42638	1382.5	0.772
313.15 K, x1 = 1	922.43	1.42901	1393.3	0.764

CC(=O)N(C)C [N,N-dimethylethanamide] + CCC(C)O
Conditions	mass density, [1] [kg/m3]	refractive index, [2]	speed of sound, [1] [m/s]	viscosity, [1] [mPa·s]
283.15 K, x1 = 0.062	823.15	1.40382	1280.8	4.37
283.15 K, x1 = 0.0926	827.08	1.40505	1288	3.888
283.15 K, x1 = 0.2101	842.13	1.4098	1314.5	2.795
283.15 K, x1 = 0.3084	854.75	1.41377	1337	2.363
283.15 K, x1 = 0.4084	867.81	1.41785	1360.1	2.043
283.15 K, x1 = 0.5009	880.22	1.42168	1382.3	1.833
283.15 K, x1 = 0.6002	893.87	1.42583	1407.2	1.662
283.15 K, x1 = 0.7001	907.96	1.43002	1433	1.518
283.15 K, x1 = 0.8035	922.69	1.43437	1461.3	1.418
283.15 K, x1 = 0.9004	936.39	1.43847	1488.8	1.318
283.15 K, x1 = 0.9572	944.31	1.44089	1505	1.258
283.15 K, x1 = 1	950.13	1.44273	1516.8	1.168
298.15 K, x1 = 0.062	810.77	1.39766	1226.5	2.545
298.15 K, x1 = 0.0926	814.69	1.39889	1233.5	2.345
298.15 K, x1 = 0.2101	829.59	1.40356	1259.8	1.839
298.15 K, x1 = 0.3084	842.09	1.40746	1281.4	1.593
298.15 K, x1 = 0.4084	855.06	1.41148	1303.8	1.427
298.15 K, x1 = 0.5009	867.31	1.41524	1324.9	1.316
298.15 K, x1 = 0.6002	880.82	1.41929	1349	1.233
298.15 K, x1 = 0.7001	894.7	1.42339	1374.8	1.151
298.15 K, x1 = 0.8035	909.23	1.42765	1402.4	1.066
298.15 K, x1 = 0.9004	922.74	1.43165	1428.8	1.02
298.15 K, x1 = 0.9572	930.54	1.43402	1443.3	0.967
298.15 K, x1 = 1	936.29	1.43579	1453.7	0.93
313.15 K, x1 = 0.062	797.87	1.39127	1172.2	1.587
313.15 K, x1 = 0.0926	801.76	1.39248	1179.1	1.501
313.15 K, x1 = 0.2101	816.61	1.39714	1205	1.274
313.15 K, x1 = 0.3084	829.07	1.40103	1226.2	1.146
313.15 K, x1 = 0.4084	841.93	1.40501	1247.8	1.048
313.15 K, x1 = 0.5009	854.12	1.40873	1268.8	0.979
313.15 K, x1 = 0.6002	867.53	1.41274	1292.5	0.927
313.15 K, x1 = 0.7001	881.27	1.4168	1317.7	0.888
313.15 K, x1 = 0.8035	895.63	1.42098	1345.2	0.857
313.15 K, x1 = 0.9004	909.02	1.42492	1370.2	0.819
313.15 K, x1 = 0.9572	916.72	1.42725	1384	0.791
313.15 K, x1 = 1	922.43	1.42901	1393.3	0.764
